From paper PMC12501029, “Discovery of a CNS active GSK3 degrader using orthogonally reactive linker screening” (Nature Communications, 2025)
Values belong to the compound of their own block, whether it stands above or below them.

Assays:
[1] = Intrinsic clearance (Cli), mouse liver microsomes; assay type: in vitro ADME; settings: 0.5 µM, scaling factor 48 mg microsomal protein per g liver
Procedure: (§1) Test compound (0.5 µM) was incubated with female CD1 mouse, male rat Han Wistar and pooled human liver microsomes (Xenotech^TM; 0.5 mg/mL 50 mM potassium phosphate buffer, pH7.4) and the reaction started with addition of excess NADPH (8 mg/mL 50 mM potassium phosphate buffer, pH7.4). Immediately, at time zero, then at 3, 6, 9, 15 and 30 min an aliquot (50 µL) of the incubation mixture was removed and mixed with acetonitrile (100 uL) to stop the reaction. An internal standard was added to all samples, the samples centrifuged to sediment precipitated protein and the plates then sealed prior to UPLC-MSMS analysis (Xevo TQ-S Micro, Waters^TM). XLfit (IDBS, UK) was used to calculate the exponential decay and consequently the rate constant (k) from the ratio of peak area of test compound to internal standard at each timepoint. The rate of intrinsic clearance (CLi) of each test compound was then calculated using the following calculation:1 CLi(mL/min/gliver)=kxVxMicrosomalproteinyield Where V (mL/mg protein) is the incubation volume/mg protein added and microsomal protein yield is taken as 48 mg, 46 mg and 40 mg protein/g liver for mouse, rat and human, respectively. Verapamil (0.5 µM) was used as a positive control to confirm acceptable assay performance.

[2] = Intrinsic clearance (Cli), rat liver microsomes; assay type: in vitro ADME; settings: 0.5 µM, scaling factor 46 mg microsomal protein per g liver
Procedure: as §1

[3] = Intrinsic clearance (Cli), human liver microsomes; assay type: in vitro ADME; settings: 0.5 µM, scaling factor 40 mg microsomal protein per g liver
Procedure: as §1

[4] = target: T1, GSK3β-HiBiT (GSK3β-HiBiT KI HEK293 cells) (Homo sapiens, UniProt P49841); test: HiBiT lytic degradation assay / high-throughput screen, 24 h; assay type: cell-based; settings: 24 h treatment
T1 construct: we generated endogenously tagged GSK3β-HiBiT knock-in (KI) HEK293 cells; endogenous in cells; host or cells: GSK3β-HiBiT knock-in HEK293 cells (CRISPR/Cas9, single-cell clone)
Procedure: Crude compounds were assumed to be 10 mM concentration in DMSO and after generating libraries directly used in biological tests in degradation screens. Stock solutions were serially diluted into white bottom opaque 384-well plates (Perkin Elmer) using Echo500 (Labcyte) and DMSO was backfilled to maintain same DMSO content in each well for all concentrations. […] HiBiT lytic assay buffer (Promega) prepared according to the manufacturer’s instructions and added onto each well using Multidrop^TM Combi reagent dispenser. Luminescence signal was measured on PheraStar plate reader (BMG) and obtained data normalised to DMSO conditions using Excel and further analysed using GraphPad Prism (v10.1.2) and degradation curves were generated using 4-parameter non-linear regression fit to calculate DC50 and Dmax values. Data points associated with concentrations displaying a hook effect were excluded prior to DC50 and Dmax calculation.

[5] = tested on: GSK3β Ser9 and GSK3β Tyr216 phosphorylation; test: GSK3β phosphorylation (Ser9, Tyr216) immunoblot in HEK293 cells; assay type: cell-based, human; settings: for impact on GSK3β Ser9 or GSK3β Tyr216 phosphorylation prior to degradation: 10 nM 24, 27, 10 nM and 1 µM 29, 30 min
Procedure: HEK293, HAP1, HAP1 CRBN KO and SH-SY5Y cells were plated in either 6 cm plates or 6-well plates at varying densities (0.5–0.7 × 10^6 cells per plate or wells), and MEF cells were plated in 10 cm plates (1–1.2 × 10^6 cells per plate) depending on experimental set up in respective culturing condition as described above. Stock solutions of compounds were prepared as 10 mM in DMSO (Sigma–Aldrich). Working dilutions were made up fresh in DMSO and culturing media or differentiation media was refreshed prior to any compound treatments. For mode of action studies, cells were pre-treated with inhibitors for 2 h: 1 µM MG132 (Merck, 474790-5 mg), 1 µM MLN4924 (Merck, 5054770001) or 1 µM GSK3 inhibitor (compound 29), before treating with PROTACs for 2, 4 or 24 h as indicated in figure legends. Cells were washed twice with ice-cold PBS (Gibco), harvested in PBS and pelleted, cells were resuspended in RIPA buffer supplemented with complete EDTA-free protease inhibitor cocktail (Roche,11873580001, 1/10 mL) and phosSTOP (Roche, 04906845001, 1 tablet/10 mL) for 20 min lysis on ice then cleared via centrifugation at 16,000 × g, 4 °C for 20 min. SH-SY5Y cells were lysed in 500 µL ice-cold lysis buffer (25 mM Tris-HCl (pH 7.4), 50 mM NaF, 100 mM NaCl, 1 mM EDTA, 4 mM EGTA, 1% (v/v) Triton-X-100, 0.09% (w/v) sucrose, 10 mM sodium pyrophosphate, 10 mM sodium vanodate, 0.1% (v/v) β-mercaptoethanol, supplemented with complete mini protease inhibitor tablet (Sigma; 1 tablet/ 10 mL buffer)). Lysates were flash frozen, thawed and centrifugated at 16,000 × g, 4 °C for 20 min. Following clearance of lysates, protein concentrations were determined by the BCA assay (Fisher Scientific, 23225) or Bradford assay (Bio-rad). Five to thirty micrograms of protein from lysates were prepared in 4×LDS buffer (Thermo Fisher) and 50 mM dithiothreitol (DTT) denaturated at 95 °C for 5 min. Proteins were separated on NuPAGE 4–12% Bis-Tris gels (Invitrogen) or 4–12% Novex Tris-glycine gels (Invitrogen) in MOPS buffer (Invitrogen) and transferred onto nitrocellulose membranes using an iBlot3 system (Thermo Fisher Scientific) or nitrocellulose membranes (Cytiva) in cold tris-glycine-methanol buffer (25 mM Tris (pH 7.5), 192 mM glycine, 20% (v/v) methanol). Membranes were blocked with either 5% fat-free milk (Marvel) or 1% (w/v) BSA (Sigma) in TBS-T (20 mM Tris (pH 7.5), 150 mM NaCl, 0.1% (v/v) Tween-20 (Sigma)) at room temperature for 30 min, or in the case of SH-SY5Y assays, 1 h, before incubating with primary antibodies overnight at 4 °C on a rocker. […]

[6] = tested on: HEK293 cells phosphoproteome; test: Phosphoproteomics in HEK293 cells; assay type: cell-based, human; design: scale not given here; settings: phosphosite abundance difference
Procedure: IMAC beads were prepared from Ni-NTA (nitrilotriacetic acid) superflow agarose beads. The nickel was stripped with 100 mM EDTA and incubated in an aqueous solution of 10 mM iron (III) chloride (FeCl3). Dried peptide fractions were reconstituted to a concentration of 0.5 μg/μL in 80% ACN/0.1% TFA. Peptide mixtures were enriched for phosphorylated peptides with 5 μL IMAC beads for 30 min with end-to-end rotation.
Enriched IMAC beads were loaded on Empore C18 silica-packed stage tips. Stage tips were equilibrated with acetonitrile followed by 50% ACN/0.1% FA then 1% FA. The beads with enriched peptides were loaded onto C18 stage tips and washed with 80% ACN/0.1% TFA. Phosphorylated peptides were eluted from IMAC beads with 500 mM dibasic sodium phosphate, pH 7.0. These peptides were washed with 1% FA before elution using 50% acetonitrile in 0.1% FA. The peptides were then dried by SpeedVac and stored at −20 °C until mass spectrometry analysis. The dried phosphopeptides were reconstituted in 0.1% formic acid and analyzed on an Orbitrap Ascend mass spectrometer coupled to a Thermo Fisher Scientific Vanquish Neo UHPLC. […] The total run time was set to 155 min. A survey full scan MS (from m/z 350–1500) was acquired in the Orbitrap at a resolution of 120,000 at 200 m/z. The most intense ions with charge state ≥2 were isolated and fragmented using higher collision dissociation (HCD) fragmentation, with 30% normalised collision energy, and detected at a mass resolution of 50,000 at 200 m/z. The isolation window was set at 1.6. The phosphoproteomics raw data were searched using SEQUEST HT search engines with Proteome Discoverer 3.0 (Thermo Fisher Scientific). The following parameters were used for searches: Precursor mass tolerance 10 ppm, fragment mass tolerance 0.02, enzyme: trypsin, […], fixed modification: carbamidomethylation of cysteine residues and TMT of lysine and N-terminal, dynamic modification: oxidation of methionine and phosphorylation of serine, threonine and tyrosine. The data were filtered for 1% PSM and peptide level. A two-tailed t-test with 250 randomisations was performed in Perseus software (v1.6.15.0) to assess statistical significance between groups. The resulting data were visualised as a volcano plot using GraphPad Prism (v10.1.2).

T1 sequence (P49841 whole entry): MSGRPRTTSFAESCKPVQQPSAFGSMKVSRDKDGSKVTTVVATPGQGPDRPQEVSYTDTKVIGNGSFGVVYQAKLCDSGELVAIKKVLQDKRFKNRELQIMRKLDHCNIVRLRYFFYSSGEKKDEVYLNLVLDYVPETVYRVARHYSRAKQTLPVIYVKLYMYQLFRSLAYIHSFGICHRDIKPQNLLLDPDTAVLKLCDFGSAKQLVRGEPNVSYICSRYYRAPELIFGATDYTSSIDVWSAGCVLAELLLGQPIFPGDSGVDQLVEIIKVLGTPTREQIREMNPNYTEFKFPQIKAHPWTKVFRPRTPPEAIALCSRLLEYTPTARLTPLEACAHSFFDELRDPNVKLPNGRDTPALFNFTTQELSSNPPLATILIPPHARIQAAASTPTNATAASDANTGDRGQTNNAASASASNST

Scaled Microsomal Stability MuClint [1]: 15 ml/min/g liver
Scaled Microsomal Stability RatClint [2]: 2.6 ml/min/g liver
Scaled Microsomal Stability HuClint [3]: 27 ml/min/g liver
Structure (SMILES): O=C1CCC(NC(=O)c2ccc(CN3CCN(CCCCCc4cn(-c5ccc(-c6cn7nccc(C(=O)Nc8cnccc8N8CCOCC8)c7n6)cc5)nn4)CC3)cc2F)C(=O)N1 (centres unmarked) [compound 21]

Dmax ([4]; HEK293, crude mixture, stock assumed 10 mM): 81%
Dmax ([4]; HEK293, pure (resynthesised, HPLC purified) compound): 73%
Structure (SMILES): O=C1CCC(NC(=O)c2ccc(CN3CCN(CCCc4cn(-c5ccc(-c6cn7nccc(C(=O)Nc8cnccc8N8CCOCC8)c7n6)cc5)nn4)CC3)cn2)C(=O)N1 (centres unmarked) [compound 23]

Structure (SMILES): CN1C(=O)CCN(c2nn(C)c3cc(CN4CCN(Cc5ccc(-c6cn(-c7ccc(-c8cn9nccc(C(=O)Nc%10cnccc%10N%10CCOCC%10)c9n8)cc7)nn6)nc5)CC4)ccc23)C1=O [compound 27]
impact on GSK3β Ser9 or GSK3β Tyr216 phosphorylation prior to degradation [5]: no impact observed
Difference, E2F8 A0AVK6 1xPhospho [S68(99.5)] ([6]; 27 vs DMSO, MOESM7): -0.2137
Difference, E2F8 A0AVK6 1xPhospho [S417(100)] ([6]; 27 vs DMSO, MOESM7): 0.1148
Difference, GATD3B A0A0B4J2D5 1xPhospho [S98(100)] ([6]; 27 vs DMSO, MOESM7): 0.02358
Difference, SIK1B A0A0B4J2F2 1xPhospho [S575(100)] ([6]; 27 vs DMSO, MOESM7): 0.09328
Difference, UBA6 A0AVT1 1xPhospho [S36(100)] ([6]; 27 vs DMSO, MOESM7): 0.2252
Difference, A0JNW5 1xPhospho [S414(100)] UHRF1BP1L ([6]; 27 vs DMSO, MOESM8): 0.1475
Difference, A0JNW5 1xPhospho [S953(99.7)] UHRF1BP1L ([6]; 27 vs DMSO, MOESM8): -0.0085
Difference, A0MZ66 1xPhospho [S506(100)] SHTN1 ([6]; 27 vs DMSO, MOESM8): 0.1099
Difference, A0MZ66 1xPhospho [S512(100)] SHTN1 ([6]; 27 vs DMSO, MOESM8): 0.06022
Difference, A0MZ66 1xPhospho [T537(100)] SHTN1 ([6]; 27 vs DMSO, MOESM8): -0.2879
Difference, Q5PRF9 1xPhospho [S592(100)] SAMD4B ([6]; vs DMSO, MOESM9): 0.05893
Difference, Q8NEM7 1xPhospho [S437(100)] SUPT20H ([6]; vs DMSO, MOESM9): 0.2274
Difference, Q96KQ7 1xPhospho [S140(100)] EHMT2 ([6]; vs DMSO, MOESM9): 0.333
Difference, Q15398 1xPhospho [S725(100)] DLGAP5 ([6]; vs DMSO, MOESM9): 0.1236
Difference, Q15911 1xPhospho [S426(100)] ZFHX3 ([6]; vs DMSO, MOESM9): 0.1806

Structure (SMILES): O=C(Nc1cnccc1N1CCOCC1)c1ccnn2cc(-c3ccc(Br)cc3)nc12 [compound 29]
impact on GSK3β Ser9 or GSK3β Tyr216 phosphorylation prior to degradation [5]: no impact observed
phosphorylation of Tyr216 after 2 h ([5]; 1 µM, 2 h): some reduction in phosphorylation of Tyr216
